# Values of other authors in patent publication US20100247673A1, “Thyroid protection in sickle cell anemia treatment” (priority 2009, published 2010).
# Test system: erythrocytes
# Details: about 4 mols incorporated per mol of hemoglobin tetramer
structure (smiles),measurement,value
N#C[O-].[K+] [potassium cyanate],erythrocytes prevented from sickling,up to 80%
